The source of these data is paper PMC11189555, “Aryl amino acetamides prevent Plasmodium falciparum ring development via targeting the lipid-transfer protein PfSTART1” (Nature Communications, 2024).

For the test, the target named is T1, recombinant PfSTART1(N330K) (I149-V394) (Plasmodium falciparum, UniProt Q8I298, N330K).
T1 construct: 8xHis tag (N); TEV protease cleavage site (N); made in house; host or cells: Sf21 insect cells (baculovirus)
T1 sequence (Q8I298 149-394 N330K): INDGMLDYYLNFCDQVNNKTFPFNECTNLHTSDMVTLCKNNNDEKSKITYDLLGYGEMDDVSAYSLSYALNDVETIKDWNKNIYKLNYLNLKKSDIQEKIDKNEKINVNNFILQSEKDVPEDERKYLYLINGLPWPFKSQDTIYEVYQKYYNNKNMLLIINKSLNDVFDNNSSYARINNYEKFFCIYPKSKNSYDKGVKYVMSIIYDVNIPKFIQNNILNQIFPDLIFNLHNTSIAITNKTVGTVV
Briefly: Isothermal titration calorimetry. Format: binding. The settings on record: for Differential Power DP_Y / ΔH NDH_Y: PfSTART(N330K), ITC replicate data. An excerpt:
S. frugiperda codon optimised full-length N309K and N330K PfSTART1 mutants were first synthesised by Integrated DNA Technologies, and then I149 forward and V394 reverse primers utilised to clone the same I149-V394 construct boundaries into the modified pAcGP67a expression vector with a N-terminal GP67-signal sequence, 8xHis tag, and TEV protease cleavage site. As a result of the subcloning, SSG was removed upstream of the TEV cleavage site. Construct boundaries and incorporation of the N309K and N330K mutations was verified by Sanger sequencing. The PfSTART1 mutants were expressed and purified as per wild-type PfSTART1.
ITC experiments were performed on a MicroCal PEAQ-ITC calorimeter at 25 °C, with a stirring speed of 750 rpm and a reference power of 5 μcal/sec. 500 μM M-833 series inhibitor solutions were diluted to 10 μM in 50 mM NaPO4^-3 (pH 7.4), 150 mM NaCl with a final DMSO concentration of 2% (v/v) (cell sample). PfSTART1 protein was dialysed extensively against 50 mM NaPO4^-3 (pH 7.4), 150 mM NaCl, before diluting to 90 μM in the same buffer with 2% (v/v) DMSO (syringe sample). The first injection was 0.4 μL over a 0.8 s duration, and the remaining 19 injections were 2 μL of 4 s duration, with 150 s injection spacing. Data were collected and analysed using the PEAQ-ITC software (MicroCal) and fit by a single site binding model. A fitted offset (constant control heat) was also applied to the integrated heat.

The structures appear in SMILES notation.

With `CC(C)(Nc1ccc(Cl)c(S(=O)(=O)N2CCOCC2)c1)C(=O)Nc1ccc(F)c(Cl)c1` [W-991], the “interaction with PfSTART1(N330K)” value (ITC) was “no interaction”. In addition, the “Differential Power DP_Y” value is -0.001242 (DP_X 0.083333) and -0.0011 (DP_X 0.1). Besides, the “ΔH NDH_Y” value runs as follows: (NDH_X 0.104703) -2.588; (NDH_X 0.192876) -2.749.
